# Legend:
# [1] = Degree of degradation of dentin collagen in dentin mixed layers; conditions: ranking among 32% phosphoric acid, EDTA and GCE
# Procedure: FIG. 4B compares degree of degradation of dentin collagen in each group of the dentin mixed layers.
# In this experiment, the inhibitory effect of GCE on soluble MMP-9 was evaluated using purified recombinant human MMP-9 (rhMMP-9) and a generic MMP assay kit (Sensolyte, AnaSpec Inc., Fremont, CA, USA). The MMP assay kit contains an intact thiopeptolide that is cleaved by specific MMPs to release a sulfhydryl group that produces colored 2-nitro-5-thiobenzoic acid with Ellman's reagent. A series of EDTA and GCE solutions (50 mg/mL, 25 mg/mL, 10 mg/mL, 5 mg/mL, 1 mg/mL) were used as test agents and 32% H3PO4 was used for comparison. […] Readings were taken after 60 min of incubation at 37° C. Absorbance was measured at 412 nm using a 96-well plate reader (VICTOR Nivo™, PerkinElmer). Background absorbance was determined from the “substrate control” wells and subtracted from the readings of the other wells containing the thiopeptolide substrate. The potency of rhMMP-9 inhibition by GM6001, the kit-included MMP inhibitor, and the […] concentrations of EDTA or GCE were expressed as percentages of the adjusted absorbance of the “positive control”. Inhibition of MMP (%) was calculated as 1−([A]test compound group−[A]test compound control)/([A]positive control−[A]substrate control), where [A] represents the absorbance values of the wells. […]
# [2] = tested on: human dental pulp stem cells (hDPSCs); experiment: Cytotoxicity test: mitochondrial dehydrogenase activity and intracellular DNA content; type: cell-based; conditions: hDPSCs exposed to 32% phosphoric acid, 0.1M EDTA or 25 mg/ml GCE; PBS control
# Excerpt: (§1) FIG. 5A detects the mitochondrial dehydrogenase activity (Mito.) of human dental pulp stem cells (hDPSCs) that had been exposed to different dentin demineralizing agents.
# FIG. 5B detects intracellular DNA content of human dental pulp stem cells that had been exposed to different dentin demineralizing agents.
# as §1, with “agents. FIG. 5B detects intracellular DNA content of human dental pulp stem cells that had been exposed to different dentin demineralizing agents.” for “agents.”
# [3] = Rate of chelating Ca2+ from mineralized dentin, inductively coupled plasma-atomic emission spectrometry; conditions: 0.1M EDTA vs EDTA cross-linked glycol chitosan at 50, 25 and 10 mg/ml
# [4] = Transmission electron microscopy of mineralized dentin treated with demineralizing agents; conditions: 0.1M EDTA for 60 seconds or 25 mg/ml glycol chitosan-EDTA for 30 seconds
# Procedure: For wet bonding, the conditioned specimen was kept moist by removing excess water from the dentin surface with lint-free tissues prior to bonding. For dry bonding, the conditioned dentin was air-dried with […] moisture-free air for 5 sec. The dentin bond strength was measured by the following methods. After treatment with various demineralizing agents and rinsing with deionized water, each tooth segment was bonded with Adper Single Bond 2 (3M ESPE; St Paul, MN, USA). After bonding, a 4-mm thick of resin composite (Z250, 3M ESPE) was placed over the adhesive-coated dentin surface using incremental light-curing. The bonded teeth with composite build-ups were stored in water for 24 hours at 37° C. Each specimen was subsequently sectioned to 0.9 mm×0.9 mm×7 mm long sticks, each with the resin-dentin interface in the middle of the stick. Each stick was attached with cyanoacrylate glue (Zapit; Dental Ventures of America, Corona, CA, USA) to a testing jig and stressed to failure under tension in a universal testing machine (Vitrodyne V1000; Liveco Inc., Burlington, VT, USA) at a cross-head speed of 1 mm/min. The tensile load at failure was recorded and divided by the measured cross-sectioned area of each beam to yield the tensile bond strength. The mean bond strength value derived from the 4 beams of each tooth was used to represent the tensile bond strength of that particular tooth. […]
SMILES,degradation rate of collagen [1],cell viability [2],demineralization effect (rate of chelating Ca2+) [3],extent of dentin demineralization in TEM image [4]
O=P(O)(O)O [phosphoric acid],highest,lowest,–,–
"O=C(O)CN(CCN(CC(=O)O)CC(=O)O)CC(=O)O [EDTA, ethylenediaminetetraacetic acid]",followed by EDTA,followed by the EDTA group,strongest demineralization effect,complete demineralization in a part of area and partial demineralization in some areas

# From patent US11980681B2, “Material for demineralizing dentin collagen fibril, preparation method and application thereof” (THE FOURTH MILITARY MEDICAL UNIVERSITY OF CHINESE PEOPLE'S …, priority 2019, dated 2024)
